Legend:
wheat = test: Test A preemergence; assay type: in vivo, Triticum aestivum
In short: (§1)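 Greenhouse pot test, loam/sand soil. Formulation: non-phytotoxic solvent mix plus surfactant. Pre: directed spray onto soil after sowing. Post: plants at 1–2 leaf, 2–10 cm. Rated visually vs untreated controls at ~10 d, 0 (no effect) to 100 (complete control).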

velvetleaf = test: Test A postemergence; assay type: in vivo, Abutilon theophrasti; details: for pest or weed control at 500 g/ha: read-out: Plant response rating Velvetleaf
In short: as §1

giant foxtail = test: Test A postemergence; assay type: in vivo, Setaria faberii; details: for pest or weed control at 125 g/ha / pest or weed control at 500 g/ha: Setaria faberi, post-emergence, 240 h; for pest or weed control at 125 g/ha: read-out: Plant response rating, Foxtail, Giant; for pest or weed control at 500 g/ha: read-out: Plant response rating Foxtail, Giant
In short: as §1

corn = test: Test A postemergence; assay type: in vivo, Zea mays; details: for Corn plant response rating (crop injury, 0 = no effect, 100 = complete kill) at 125 g/ha / plant injury at 500 g/ha: Zea mays, post-emergence, 240 h; for plant injury at 500 g/ha: read-out: Plant response rating Corn
In short: as §1

pigweed [1] = test: Test A preemergence; assay type: in vivo, Amaranthus retroflexus; details: for pest or weed control at 125 g/ha / pest or weed control at 500 g/ha: Amaranthus retroflexus, pre-emergence
In short: as §1

large (Lg) crabgrass = test: Test A postemergence; assay type: in vivo, Digitaria sanguinalis; details: for pest or weed control at 125 g/ha / pest or weed control at 500 g/ha: Digitaria sanguinalis, post-emergence, 240 h; for pest or weed control at 125 g/ha: read-out: Plant response rating, Crabgrass, Large; for pest or weed control at 500 g/ha: read-out: Plant response rating Crabgrass, Large
In short: as §1

pigweed [2] = test: Test C preemergence; assay type: in vivo, Amaranthus retroflexus; details: Amaranthus retroflexus, pre-emergence
Excerpt: (§2) Seeds of plant species selected from blackgrass (Alopecurus myosuroides), Italian ryegrass (Lolium multiflorum), wheat, winter (winter wheat, Triticum aestivum), galium (catchweed bedstraw, Galium aparine), corn (Zea mays), large (Lg) crabgrass (Digitaria sanguinalis), giant foxtail (Setaria faberii), johnsongrass (Sorghum halepense), lambsquarters (Chenopodium album), morningglory (Ipomoea coccinea), yellow nutsedge (Cyperus esculentus), pigweed (Amaranthus retroflexus), ragweed (common ragweed, Ambrosia elatior), soybean (Glycine max), barnyardgrass (Echinochloa crus-galli), oilseed rape (Brassica napus), waterhemp (common waterhemp, Amaranthus rudis), kochia (Kochia scoparia), wild oat (Avena fatua), surinam grass (Brachiaria decumbens), foxtail, green (green foxtail, Setaria viridis), goosegrass (Eleusine indica), bromegrass, downy (downy bromegrass, Bromus tectorum), nightshade (eastern black nightshade, Solanum ptycanthum), cocklebur (common cocklebur, Xanthium strumarium), cupgrass, woolly (woolly cupgrass, Eriochloa villosa), bermudagrass (Cynodon dactylon), sunflower, (common oilseed sunflower, Helianthus annuus), Russian thistle (Salsola kali), and velvetleaf (Abutilon theophrasti) were planted into a blend of loam soil and sand and treated preemergence with test chemicals formulated in a non-phytotoxic solvent mixture which included a surfactant.
(§3) At the same time, plants selected from these crop and weed species and also barley, winter (winter barley, Hordeum vulgare), windgrass (Apera spica-venti), chickweed (common chickweed, Stellaria media), deadnettle (henbit deadnettle, Lamium amplexicaule), and canarygrass (littleseed canarygrass, Phalaris minor) were planted in pots containing Redi-Earth® planting medium (Scotts Company, 14111 Scottslawn Road, Marysville, Ohio 43041) comprising spaghnum peat moss, vermiculite, wetting agent and starter nutrients and treated with postemergence applications of test chemicals formulated in the same manner. Plants ranged in height from 2 to 18 cm (1- to 4-leaf stage) for postemergence treatments. Treated plants and controls were maintained in a greenhouse for 13 to 15 days, after which time all species were compared to controls and visually evaluated. Plant response ratings, summarized in Table C, are based on a scale of 0 to 100 where 0 is no effect and 100 is complete control. A dash (-) response means no test result.

yellow nutsedge = test: Test C preemergence; assay type: in vivo, Cyperus esculentus; details: Cyperus, pre-emergence
Excerpt: as §2, §3

lambsquarters [3] = test: Test C preemergence; assay type: in vivo, Chenopodium album; details: Chenopodium album, pre-emergence
Excerpt: as §2, §3

ragweed = test: Test C preemergence; assay type: in vivo, Ambrosia elatior; details: Ambrosia artemisiifolia, pre-emergence
Excerpt: as §2, §3

lambsquarters [4] = test: Test C postemergence; assay type: in vivo, Chenopodium album; details: for Plant response rating, Lambsquarters: scale 0 to 100 (0 no effect, 100 complete control)
Excerpt: as §2, §3

kochia = test: Test C postemergence; assay type: in vivo, Kochia scoparia; details: for Plant response rating, Kochia: scale 0 to 100 (0 no effect, 100 complete control)
Excerpt: as §2, §3

morningglory = test: Test C postemergence; assay type: in vivo, Ipomoea coccinea; details: for Plant response rating, Morningglory: scale 0 to 100 (0 no effect, 100 complete control)
Excerpt: as §2, §3

galium = test: Test C postemergence; assay type: in vivo, Galium aparine; details: for Plant response rating, Galium: scale 0 to 100 (0 no effect, 100 complete control)
Excerpt: as §2, §3

[5] = Triticum aestivum, pre-emergence, 240 h, 500 g ai/ha, 0 to 100 scale, 0 no effect, 100 complete control, approx. 10 days, read-out: Wheat plant response rating
[6] = Abutilon theophrasti, post-emergence, 240 h, 500 g ai/ha, 0 to 100 scale, 0 no effect, 100 complete control
[7] = 125 g ai/ha, 0 to 100 scale where 0 is no effect and 100 is complete control
[8] = 500 g ai/ha, 0 to 100 scale, 0 no effect, 100 complete control
[9] = 240 h, 500 g ai/ha, 0 to 100 scale, 0 no effect, 100 complete control, approx. 10 days, read-out: Pigweed plant response rating
[10] = 500 g ai/ha, 0 to 100 scale, 0 no effect, 100 complete control, approx. 10 days
[11] = 16 g ai/ha, postemergence, 0 is no effect, 100 is complete control
[12] = 125 g ai/ha, postemergence, visual rating
[13] = 31 g ai/ha, 0 to 100 scale, 0 no effect, 100 complete control

FC(F)(F)c1ccn(-c2ccccc2Oc2ncc(Cl)cn2)n1 [Compound 2, 5-chloro-2-[2-[3-(trifluoromethyl)-1H-pyrazol-1-yl]phenoxy]pyrimidine]
plant injury at 125 g/ha (wheat; Triticum aestivum, pre-emergence, 240 h, 125 g ai/ha, 0 to 100 scale where 0 is no effect and 100 is complete control, read-out: Wheat plant response rating): 0% | plant injury at 500 g/ha (wheat; [5]): 0% | pest or weed control at 500 g/ha (velvetleaf; [6]): 60% | pest or weed control at 125 g/ha (giant foxtail; [7]): 10% | pest or weed control at 500 g/ha (giant foxtail; [8]): 80% | Corn plant response rating (crop injury, 0 = no effect, 100 = complete kill) at 125 g/ha (corn; [7]): 0% | plant injury at 500 g/ha (corn; [8]): 40% | pest or weed control at 125 g/ha (pigweed [1]; 240 h, 125 g ai/ha, 0 to 100 scale where 0 is no effect and 100 is complete control, read-out: Pigweed plant response rating): 90% | pest or weed control at 500 g/ha (pigweed [1]; [9]): 100% | pest or weed control at 125 g/ha (large (Lg) crabgrass; [7]): 20% | pest or weed control at 500 g/ha (large (Lg) crabgrass; [8]): 60%

Clc1cnc(Oc2ccccc2-n2cc(Cl)cn2)nc1 [Compound 3]
Wheat plant response rating (wheat; [7]): 0 | Wheat plant response rating (wheat; [10]): 10 | Plant response rating, Velvetleaf (velvetleaf; [7]): 100 | Plant response rating, Velvetleaf (velvetleaf; [8]): 100 | Plant response rating, Foxtail, Giant (giant foxtail; [7]): 30 | Plant response rating, Foxtail, Giant (giant foxtail; [8]): 90 | Plant response rating, Corn (corn; [7]): 0 | Plant response rating, Corn (corn; [8]): 40 | Pigweed plant response rating (pigweed [1]; [7]): 90 | Pigweed plant response rating (pigweed [1]; [10]): 100 | Plant response rating, Crabgrass, Large (large (Lg) crabgrass; [7]): 10 | Plant response rating, Crabgrass, Large (large (Lg) crabgrass; [8]): 80

FC(F)(F)c1cnn(-c2ccccc2Oc2ncc(Br)cn2)c1 [Compound 18, 5-bromo-2-[2-[4-(trifluoromethyl)-1H-pyrazol-1-yl]phenoxy]pyrimidine]
Plant response rating, Wheat (wheat; [7]): 0 | plant injury at 500 g/ha (wheat; [5]): 70% | pest or weed control at 62 g/ha (pigweed [2]; 62 g ai/ha, preemergence, scale 0 (no effect) to 100 (complete control), read-out: Pigweed plant response rating): 100% | pest or weed control at 125 g/ha (pigweed [2]; 125 g ai/ha, preemergence, scale 0 (no effect) to 100 (complete control), read-out: Pigweed plant response rating): 100% | pest or weed control at 250 g/ha (pigweed [2]; 250 g ai/ha, preemergence, scale 0 (no effect) to 100 (complete control), read-out: Pigweed plant response rating): 100% | pest or weed control at 31 g/ha (pigweed [2]; Preemergence, 31 g ai/ha, scale 0 to 100, 0 no effect, 100 complete control, read-out: Plant response rating, Pigweed): 100% | pest or weed control at 62 g/ha (yellow nutsedge; 62 g ai/ha, preemergence, scale 0 (no effect) to 100 (complete control), read-out: Nutsedge, Yellow plant response rating): 15% | pest or weed control at 125 g/ha (yellow nutsedge; 125 g ai/ha, preemergence, scale 0 (no effect) to 100 (complete control), read-out: Nutsedge, Yellow plant response rating): 25% | pest or weed control at 250 g/ha (yellow nutsedge; 250 g ai/ha, preemergence, scale 0 (no effect) to 100 (complete control), read-out: Nutsedge, Yellow plant response rating): 35% | pest or weed control at 31 g/ha (yellow nutsedge; Preemergence, 31 g ai/ha, scale 0 to 100, 0 no effect, 100 complete control, read-out: Plant response rating, Nutsedge, Yellow): 10% | pest or weed control at 62 g/ha (lambsquarters [3]; 62 g ai/ha, preemergence, scale 0 (no effect) to 100 (complete control), read-out: Lambsquarters plant response rating): 50% | pest or weed control at 125 g/ha (lambsquarters [3]; 125 g ai/ha, preemergence, scale 0 (no effect) to 100 (complete control), read-out: Lambsquarters plant response rating): 65% | pest or weed control at 250 g/ha (lambsquarters [3]; 250 g ai/ha, preemergence, scale 0 (no effect) to 100 (complete control), read-out: Lambsquarters plant response rating): 80% | pest or weed control at 31 g/ha (lambsquarters [3]; Preemergence, 31 g ai/ha, scale 0 to 100, 0 no effect, 100 complete control, read-out: Plant response rating, Lambsquarters): 30% | pest or weed control at 125 g/ha (velvetleaf; Abutilon theophrasti, post-emergence, 240 h, 125 g ai/ha, 0 to 100 scale where 0 is no effect and 100 is complete control, read-out: Plant response rating, Velvetleaf): 100% | pest or weed control at 500 g/ha (velvetleaf; [6]): 100% | pest or weed control at 125 g/ha (giant foxtail; [7]): 80% | pest or weed control at 500 g/ha (giant foxtail; [8]): 100% | Corn plant response rating (crop injury, 0 = no effect, 100 = complete kill) at 125 g/ha (corn; [7]): 30% | plant injury at 500 g/ha (corn; [8]): 90% | pest or weed control at 62 g/ha (ragweed; 62 g ai/ha, preemergence, scale 0 (no effect) to 100 (complete control), read-out: Ragweed plant response rating): 0% | pest or weed control at 125 g/ha (ragweed; 125 g ai/ha, preemergence, scale 0 (no effect) to 100 (complete control), read-out: Ragweed plant response rating): 10% | pest or weed control at 250 g/ha (ragweed; 250 g ai/ha, preemergence, scale 0 (no effect) to 100 (complete control), read-out: Ragweed plant response rating): 30% | pest or weed control at 31 g/ha (ragweed; Preemergence, 31 g ai/ha, scale 0 to 100, 0 no effect, 100 complete control, read-out: Plant response rating, Ragweed): 0% | pest or weed control at 125 g/ha (pigweed [1]; 125 g ai/ha, 0 to 100 scale where 0 is no effect and 100 is complete control, read-out: Plant response rating, Pigweed): 100% | pest or weed control at 500 g/ha (pigweed [1]; [9]): 100% | pest or weed control at 125 g/ha (large (Lg) crabgrass; [7]): 70% | pest or weed control at 500 g/ha (large (Lg) crabgrass; [8]): 100%

FCc1cccc(Oc2ncc(Br)cn2)c1-n1cc(C(F)(F)F)cn1 [Compound 120]
Plant response rating (0 to 100), Lambsquarters (lambsquarters [4]; [11]): 55 | Plant response rating, Lambsquarters (lambsquarters [4]; [12]): 85 | Plant response rating, Lambsquarters (lambsquarters [4]; Postemergence, 62 g ai/ha): 70 | Plant response rating, Foxtail, Giant (giant foxtail; [13]): 20 | Plant response rating, Foxtail, Giant (giant foxtail; [7]): 70 | Plant response rating, Corn (corn; [13]): 10 | Plant response rating, Corn (corn; [7]): 50 | Plant response rating (0 to 100), Kochia (kochia; [11]): 75 | Plant response rating, Kochia (kochia; [12]): 100 | Plant response rating, Kochia (kochia; Postemergence, 62 g ai/ha): 95 | Plant response rating (0 to 100), Morningglory (morningglory; [11]): 20 | Plant response rating, Morningglory (morningglory; [12]): 80 | Plant response rating, Morningglory (morningglory; Postemergence, 62 g ai/ha): 35 | Plant response rating (0 to 100), Galium (galium; [11]): 30 | Plant response rating, Galium (galium; [12]): 60 | Plant response rating, Galium (galium; Postemergence, 62 g ai/ha): 30 | Pigweed plant response rating (0 to 100 scale) (pigweed [1]; 31 g ai/ha): 100 | Plant response rating, Pigweed (pigweed [1]; [7]): 100
